System: SU-DHL-1 cells
Assay: Inhibition activity of cell proliferation (CCK-8 assay)
Type: cell-based
Settings: Homo sapiens, 72 h exposure
Description: SU-DHL-1 cells were seeded in 96-well tissue culture plates. On the next day, cells were exposed to various concentrations of compounds and further cultured for 72 h. Cell proliferation was then determined using Cell Counting Kit-8 [(CCK-8), Dojindo]assay. Briefly, add 10 μL of the CCK-8 solution to each well of the plate. Incubate the plate for 1-4 hours in the incubator. Measure the absorbance at 450 nm using a multi-well spectrophotometer (SpectraMAX 190, Molecular Devices). The inhibition rate (%) was calculated using the following equation: [1−(A450 Compound/A450 Control)]×100%. IC50 values were calculated according to inhibition curve by four-parameter fit.

`Cc1cc(Nc2ncc(Cl)c(Nc3ccccc3S(=O)(=O)C(C)C)n2)c2c(c1C1CCNCC1)C[C@H](C)O2` [Example 11, (S)-5-chloro-N-2-(2,5-dimethyl-4-(piperidin-4-yl)-2,3-dihydrobenzofuran-7-yl)-N-4-(2-(isopropylsulfonyl)phenyl)pyrimidine-2,4-diamine] was tested, and the IC50 was < 4.1 nM.

An IC50 of 18.9 nM was found for `Cc1cc(Nc2nc(Nc3ccccc3S(=O)(=O)C(C)C)c3c(C)n[nH]c3n2)c2c(c1C1CCN(C)CC1)CCO2` [Example 2, N-4-(2-(isopropylsulfonyl)phenyl)-3-methyl-N-6-(5-methyl-4-(1-methylpiperidin-4-yl)-2,3-dihydrobenzofuran-7-yl)-1H-pyrazolo[3,4-d]pyrimidine-4,6-diamine] in this work.

An IC50 of 98.3 nM was found for `Cc1cc(Nc2ncc(Cl)c(Nc3ccccc3S(=O)(=O)C(C)C)n2)c2c(c1C1CCNCC1)C[C@@H](C)O2` [Example 9, (R)-5-chloro-N-2-(2,5-dimethyl-4-(piperidin-4-yl)-2,3-dihydrobenzofuran-7-yl)-N-4-(2-(isopropylsulfonyl)phenyl)pyrimidine-2,4-diamine] in this work.

An IC50 of 34.6 nM was found for `Cc1cc(Nc2nc(Nc3ccccc3S(=O)(=O)C(C)C)c3c(C)n[nH]c3n2)c2c(c1C1CCN(C)CC1)C[C@H](C)O2` [Example 6] in this work.

An IC50 of 37.2 nM was found for `Cc1cc(Nc2ncc(Cl)c(Nc3ccccc3S(=O)(=O)C(C)C)n2)c2c(c1C1CCN(CC(=O)N(C)C)CC1)C[C@H](C)O2` [Example 27, (S)-2-(4-(7-((5-chloro-4-((2-(isopropylsulfonyl)phenyl)amino)pyrimidin-2-yl)amino)-2,5-dimethyl-2,3-dihydrobenzofuran-4-yl)piperidin-1-yl)-N,N-dimethylacetamide] in this work.

An IC50 of 117 nM was found for `Cc1cc(Nc2ncc(Cl)c(Nc3ccccc3S(=O)(=O)C(C)C)n2)c2c(c1C(=O)N1CCN(C)CC1)C[C@H](C)O2` [Example 47, (S)-(7-((5-chloro-4-((2-(isopropylsulfonyl)phenyl)amino)pyrimidin-2-yl)amino)-2,5-dimethyl-2,3-dihydrobenzofuran-4-yl)(4-methylpiperazin-1-yl)methanone] in this work.

An IC50 of 68.6 nM was found for `Cc1cc(Nc2ncc(Cl)c(Nc3ccccc3S(=O)(=O)C(C)C)n2)c2c(c1C1CCN(C(=O)[C@H](C)N)CC1)C[C@H](C)O2` [Example 21, (S)-2-amino-1-(4-((S)-7-((5-chloro-4-((2-(isopropylsulfonyl)phenyl)amino)pyrimidin-2-yl)amino)-2,5-dimethyl-2,3-dihydrobenzofuran-4-yl)piperidin-1-yl)propan-1-one] in this work.

An IC50 of 12.3 nM was found for `Cc1cc(Nc2ncc(Cl)c(Nc3ccccc3S(=O)(=O)C(C)C)n2)c2c(c1C1CCN(C[C@@H](C)O)CC1)C[C@@H](C)O2` [Example 23, (R)-1-(4-((R)-7-((5-chloro-4-((2-(isopropylsulfonyl)phenyl)amino)pyrimidin-2-yl)amino)-2,5-dimethyl-2,3-dihydrobenzofuran-4-yl)piperidin-1-yl)propan-2-ol] in this work.

An IC50 of 114 nM was found for `Cc1cc(Nc2ncc(Cl)c(Nc3ccccc3S(=O)(=O)C(C)C)n2)c2c(c1C(=O)N1CCNCC1)C[C@H](C)O2` [Example 46, (S)-(7-((5-chloro-4-((2-(isopropylsulfonyl)phenyl)amino)pyrimidin-2-yl)amino)-2,5-dimethyl-2,3-dihydrobenzofuran-4-yl)(piperazin-1-yl)methanone] in this work.

An IC50 of 4.9 nM was found for `Cc1cc(Nc2ncc(Cl)c(Nc3ccccc3S(=O)(=O)C(C)C)n2)c2c(c1C1CCN(CC(=O)O)CC1)C[C@H](C)O2` [Example 19, (S)-2-(4-(7-((5-chloro-4-((2-(isopropylsulfonyl)phenyl)amino)pyrimidin-2-yl)amino)-2,5-dimethyl-2,3-dihydrobenzofuran-4-yl)piperidin-1-yl)acetic acid] in this work.

An IC50 of 298 nM was found for `Cc1cc(Nc2nc(Nc3ccccc3S(=O)(=O)C(C)C)c3c(C)n[nH]c3n2)c2c(c1C1CCNCC1)CC(CO)O2` (stereo not drawn) [Example 7, (7-(4-(2-(isopropylsulfonyl)phenylamino)-3-methyl-1H-pyrazolo[3,4-d]pyrimidin-6-ylamino)-5-methyl-4-(piperidin-4-yl)-2,3-dihydrobenzofuran-2-yl)methanol] in this work.

An IC50 of 52.4 nM was found for `Cc1cc(Nc2ncc(Cl)c(Nc3ccccc3S(=O)(=O)C(C)C)n2)c2c(c1C1CCN(C(=O)C3CC3)CC1)C[C@@H](C)O2` [Example 51, (R)-(4-(7-((5-chloro-4-((2-(isopropylsulfonyl)phenyl)amino)pyrimidin-2-yl)amino)-2,5-dimethyl-2,3-dihydrobenzofuran-4-yl)piperidin-1-yl)(cyclopropyl)methanone] in this work.

An IC50 of 46.6 nM was found for `Cc1cc(Nc2ncc(Cl)c(Nc3ccccc3S(=O)(=O)C(C)C)n2)c2c(c1C1CCN(CC(=O)N(C)C)CC1)C[C@@H](C)O2` [Example 28, (R)-2-(4-(7-((5-chloro-4-((2-(isopropylsulfonyl)phenyl)amino)pyrimidin-2-yl)amino)-2,5-dimethyl-2,3-dihydrobenzofuran-4-yl)piperidin-1-yl)-N,N-dimethylacetamide] in this work.

An IC50 of 68.5 nM was found for `Cc1cc(Nc2ncc(Cl)c(Nc3ccccc3S(=O)(=O)C(C)C)n2)c2c(c1C1CCN(S(C)(=O)=O)CC1)C[C@H](C)O2` [Example 17, (S)-5-chloro-N-2-(2,5-dimethyl-4-(1-(methylsulfonyl)piperidin-4-yl)-2,3-dihydrobenzofuran-7-yl)-N-4-(2-(isopropylsulfonyl)phenyl)pyrimidine-2,4-diamine] in this work.

An IC50 of 61 nM was found for `Cc1cc(Nc2nc(Nc3ccccc3S(=O)(=O)C(C)C)c3c(C)n[nH]c3n2)c2c(c1C1CCNCC1)C[C@@H](C)O2` [Example 3, (R)—N-6-(2,5-dimethyl-4-(piperidin-4-yl)-2,3-dihydrobenzofuran-7-yl)-N-4-(2-(isopropylsulfonyl)-phenyl)-3-methyl-1H-pyrazolo[3,4-d]pyrimidine-4,6-diamine] in this work.

An IC50 of 107 nM was found for `Cc1cc(Nc2ncc(Cl)c(Nc3ccccc3S(=O)(=O)C(C)C)n2)c2c(c1C1CCN(C(N)=O)CC1)C[C@H](C)O2` [Example 43, (S)-4-(7-((5-chloro-4-((2-(isopropylsulfonyl)phenyl)amino)pyrimidin-2-yl)amino)-2,5-dimethyl-2,3-dihydrobenzofuran-4-yl)piperidine-1-carboxamide] in this work.

An IC50 of 4 nM was found for `Cc1cc(Nc2ncc(Cl)c(Nc3ccccc3S(=O)(=O)C(C)C)n2)c2c(c1C1CCN(C)CC1)C[C@H](C)O2` [Example 12] in this work.

An IC50 of 54.6 nM was found for `Cc1cc(Nc2ncc(Cl)c(Nc3ccccc3S(=O)(=O)C(C)C)n2)c2c(c1C1CCN(C(=O)CN)CC1)C[C@H](C)O2` [Example 42, (S)-2-amino-1-(4-(7-((5-chloro-4-((2-(isopropylsulfonyl)phenyl)amino)pyrimidin-2-yl)amino)-2,5-dimethyl-2,3-dihydrobenzofuran-4-yl)piperidin-1-yl)ethanone] in this work.

An IC50 of 120 nM was found for `COC(=O)N1CCC(c2c(C)cc(Nc3ncc(Cl)c(Nc4ccccc4S(=O)(=O)C(C)C)n3)c3c2C[C@H](C)O3)CC1` [Example 40, (S)-methyl 4-(7-((5-chloro-4-((2-(isopropylsulfonyl)phenyl)amino)pyrimidin-2-yl)amino)-2,5-dimethyl-2,3-dihydrobenzofuran-4-yl)piperidine-1-carboxylate] in this work.

An IC50 of 17.4 nM was found for `Cc1cc(Nc2ncc(Cl)c(Nc3ccccc3S(=O)(=O)C(C)C)n2)c2c(c1C1CCN(CCS(C)(=O)=O)CC1)C[C@@H](C)O2` [Example 30] in this work.

An IC50 of 36.3 nM was found for `Cc1cc(Nc2ncc(Cl)c(Nc3ccccc3S(=O)(=O)C(C)C)n2)c2c(c1C1CCN(CC(N)=O)CC1)C[C@H](C)O2` [Example 25, (S)-2-(4-(7-((5-chloro-4-((2-(isopropylsulfonyl)phenyl)amino)pyrimidin-2-yl)amino)-2,5-dimethyl-2,3-dihydrobenzofuran-4-yl)piperidin-1-yl)acetamide] in this work.

An IC50 of 12.5 nM was found for `Cc1cc(Nc2ncc(Cl)c(Nc3ccccc3S(=O)(=O)C(C)C)n2)c2c(c1C1CCN(C(=O)CO)CC1)C[C@@H](C)O2` [Example 37, (R)-1-(4-(7-((5-chloro-4-((2-(isopropylsulfonyl)phenyl)amino)pyrimidin-2-yl)amino)-2,5-dimethyl-2,3-dihydrobenzofuran-4-yl)piperidin-1-yl)-2-hydroxyethanone] in this work.

An IC50 of 38.2 nM was found for `CC(=O)N1CCC(c2c(C)cc(Nc3ncc(Cl)c(Nc4ccccc4S(=O)(=O)C(C)C)n3)c3c2C[C@H](C)O3)CC1` [Example 15, (S)-1-(4-(7-((5-chloro-4-((2-(isopropylsulfonyl)phenyl)amino)pyrimidin-2-yl)amino)-2,5-dimethyl-2,3-dihydrobenzofuran-4-yl)piperidin-1-yl)ethanone] in this work.

An IC50 of 97.8 nM was found for `CCC(=O)N1CCC(c2c(C)cc(Nc3ncc(Cl)c(Nc4ccccc4S(=O)(=O)C(C)C)n3)c3c2C[C@@H](C)O3)CC1` [Example 49, (R)-1-(4-(7-((5-chloro-4-((2-(isopropylsulfonyl)phenyl)amino)pyrimidin-2-yl)amino)-2,5-dimethyl-2,3-dihydrobenzofuran-4-yl)piperidin-1-yl)propan-1-one] in this work.

An IC50 of 86 nM was found for `Cc1cc(Nc2ncc(Cl)c(Nc3ccccc3S(=O)(=O)C(C)C)n2)c2c(c1C1CCN(C(=O)[C@H](C)N)CC1)C[C@@H](C)O2` [Example 22, (S)-2-amino-1-(4-((R)-7-((5-chloro-4-((2-(isopropylsulfonyl)phenyl)amino)pyrimidin-2-yl)amino)-2,5-dimethyl-2,3-dihydrobenzofuran-4-yl)piperidin-1-yl)propan-1-one] in this work.

An IC50 of 10.3 nM was found for `Cc1cc(Nc2ncc(Cl)c(Nc3ccccc3S(=O)(=O)C(C)C)n2)c2c(c1C1CCN(C(=O)[C@@H](C)O)CC1)C[C@@H](C)O2` [Example 39, (R)-1-(4-((R)-7-((5-chloro-4-((2-(isopropylsulfonyl)phenyl)amino)pyrimidin-2-yl)amino)-2,5-dimethyl-2,3-dihydrobenzofuran-4-yl)piperidin-1-yl)-2-hydroxypropan-1-one] in this work.

An IC50 of 64.7 nM was found for `Cc1cc(Nc2ncc(Cl)c(Nc3ccccc3S(=O)(=O)C(C)C)n2)c2c(c1C1CCN(CCS(C)(=O)=O)CC1)C[C@H](C)O2` [Example 29] in this work.

Source: patent US9567342B2, “Certain protein kinase inhibitors” (SHANGHAI FOCHON PHARMACEUTICAL CO., LTD., priority 2012, dated 2017)
